Results published in patent US5759785A, “Method of identifying hormone antagonists and agonists” (Baylor College of Medicine, priority 1995, dated 1998).

What was measured:
hPR = target: T1, hPR (Homo sapiens, UniProt P06401); assay: Bandshift analysis of T47D extract hPR with C-262 antibody supershift; assay type: biochemical; settings: T47D extracts; 100 nM ligand
T1 sequence (P06401 1-933): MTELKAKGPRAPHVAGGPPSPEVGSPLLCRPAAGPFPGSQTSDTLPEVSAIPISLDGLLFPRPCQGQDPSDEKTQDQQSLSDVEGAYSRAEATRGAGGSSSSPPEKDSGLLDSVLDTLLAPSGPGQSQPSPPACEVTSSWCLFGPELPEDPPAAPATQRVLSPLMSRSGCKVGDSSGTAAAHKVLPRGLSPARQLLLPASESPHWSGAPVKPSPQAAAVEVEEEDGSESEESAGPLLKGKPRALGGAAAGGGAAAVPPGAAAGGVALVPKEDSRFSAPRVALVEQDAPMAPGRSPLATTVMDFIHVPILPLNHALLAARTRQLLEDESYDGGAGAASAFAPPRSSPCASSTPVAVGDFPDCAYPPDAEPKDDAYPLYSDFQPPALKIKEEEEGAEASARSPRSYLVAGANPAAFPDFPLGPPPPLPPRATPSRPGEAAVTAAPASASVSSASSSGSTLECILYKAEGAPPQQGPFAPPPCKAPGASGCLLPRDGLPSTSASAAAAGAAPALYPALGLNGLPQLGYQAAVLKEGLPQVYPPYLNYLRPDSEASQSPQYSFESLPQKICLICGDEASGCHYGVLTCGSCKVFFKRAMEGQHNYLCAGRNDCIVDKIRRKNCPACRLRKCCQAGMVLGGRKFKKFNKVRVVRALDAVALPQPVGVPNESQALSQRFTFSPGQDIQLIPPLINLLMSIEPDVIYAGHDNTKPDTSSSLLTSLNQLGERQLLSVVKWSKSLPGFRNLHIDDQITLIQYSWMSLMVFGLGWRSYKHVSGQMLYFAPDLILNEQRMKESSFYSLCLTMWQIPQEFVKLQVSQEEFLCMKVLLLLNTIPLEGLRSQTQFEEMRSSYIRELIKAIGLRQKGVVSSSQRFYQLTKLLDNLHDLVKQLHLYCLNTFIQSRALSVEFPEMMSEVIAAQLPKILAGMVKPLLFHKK
Protocol: In panel (A), T47D extracts were treated in vitro with 100 nM progesterone (P, lanes 2, 5, 8, 11 and 13), RU486 (R, lanes 3, 6 and 9) or with an equal amount (0.01% (v/v)) of ethanol carrier (-, lanes 1, 4, 7, 10, 12 and 14), followed by the addition of N-terminal-binding (AB52, lanes 7 to 9 and 14) or C-terminal-binding (C-262, lanes 4 to 13) anti-hPR monoclonal antibodies, or a control anti-cPR antibody (PR22, lanes 1 to 3). […] Binding to a PRE was assessed by bandshift analysis. The positions of specific DNA-protein complexes and of free probe are indicated. (B) The effect of ligands on C-262 supershifting was tested as in (A), except that extracts were treated with 100 nM Org31376 (OI, lanes 3, 7 and 11), Org31806 (OII, lanes 4, 8 and 12) or progesterone (P, lanes 2, 6 and 10).
A monoclonal antibody (C-262), which was raised against the C-terminal 14 amino acids of PR was used to determine if there was a difference in the accessibility of the epitope when the receptor was bound to an agonist or an antagonist.
The epitope recognized by C-262 antibody was the C-terminus of the receptor. A peptide corresponding to the C-terminal 14 amino acid tail was preincubated with the antibody prior to addition to the band-shift reaction.

A-form human PR [1] = assay: Electrophoretic mobility shift assay, in vitro translated PR binding to a PRE; assay type: biochemical; settings: 100 nM ligand (progesterone also 10 nM)
Protocol: (§1) EMSAs were carried out as previously described (Bagchi et al., Mol. Cell. Biol., 2:1221, 1988), except that 100 ng (PR) or 1 μg (ER) of Poly(dI-dC)(dI-dC) were used as competitor and 10 mM MgCl2 was used when testing estrogen receptor. 4 μl of unlabeled translation mix were used per 10 μl reaction. Proteins were incubated with ligand at room temperature (PR) or 37° C. (ER) for 10 minutes, followed by the addition of DNA and further incubation for 10 minutes. For the experiment in FIG. 2, all incubations were carried out at 30° C. in the presence of 300 U/ml calf intestinal alkaline phosphatase. All mixing was done by gentle vortexing. DNA-protein complexes were resolved on 4% (w/v) gels.
Hormone-dependent activity of the in vitro synthesized PR was measured, i.e., its ability to bind DNA specifically was examined by electrophoretic mobility shift assay (EMSA) (FIG. 1A). Unlabeled receptors were incubated with a ^32 P-end-labeled oligonucleotide equivalent to a PRE from the tyrosine aminotransferase gene upstream region.

A-form human PR [2] = assay: Limited proteolytic digestion of translated PR; assay type: biochemical; settings: 100 nM ligand; for protease-resistant PR fragment: chymotrypsin, trypsin or subtilisin digestion; for proteolytic fragment pattern / conformational change of PR: trypsin (Org compounds) or subtilisin (R5020)
Protocol: (§2) To 5 μl of hormone-treated (10 minutes at room temperature (PR) or 37° C. (ER)) labeled translation mix, 0.5 μl of protease (diluted in water) was added followed by incubation for 10 minutes. The rate of digestion is dependent on the concentration of enzyme used. ER translation mixes were made 10 mM in MgCl2 before hormone addition. 0.5 μl was removed and mixed with 10 μl of denaturing loading dye, boiled for 5 minutes, and immediately loaded on 1.5 mm thick 0.1% (w/v) sodium dodecyl sulphate-12% (w/v) polyacrylamide gels. Denaturing gel electrophoresis was performed as described in Promega's translation handbook. Following electrophoresis, gels were treated with 30% (v/v) methanol/10% (v/v) acetic acid, then with EN^3 HANCE, and were vacuum dried at 60° C. for 30 minutes, followed by 80° C. for 45 minutes. Autoradiography was performed overnight. Promega's rabbit reticulocyte lysates average a protein concentration of 130 mg/ml; 5 μg of protease per ml of translation mix is therefore roughly equivalent to 60 ng of protease per mg of protein.
Proteolytic analysis is a powerful method for analyzing conformation changes within proteins. [^35 S]methionine-labeled PR was treated with progesterone, Ru38486 or ethanol, then digested for a short period of time with different amounts of various proteases. Digestion products were analyzed by denaturing gel electrophoresis.

Human ER = target: T2, Human ER (Homo sapiens, UniProt P03372); assay: Electrophoretic mobility shift assay, translated ER binding to an ERE; assay type: biochemical; settings: 100 nM ligand; 10 mM MgCl2, 37° C.
T2 sequence (P03372 1-595): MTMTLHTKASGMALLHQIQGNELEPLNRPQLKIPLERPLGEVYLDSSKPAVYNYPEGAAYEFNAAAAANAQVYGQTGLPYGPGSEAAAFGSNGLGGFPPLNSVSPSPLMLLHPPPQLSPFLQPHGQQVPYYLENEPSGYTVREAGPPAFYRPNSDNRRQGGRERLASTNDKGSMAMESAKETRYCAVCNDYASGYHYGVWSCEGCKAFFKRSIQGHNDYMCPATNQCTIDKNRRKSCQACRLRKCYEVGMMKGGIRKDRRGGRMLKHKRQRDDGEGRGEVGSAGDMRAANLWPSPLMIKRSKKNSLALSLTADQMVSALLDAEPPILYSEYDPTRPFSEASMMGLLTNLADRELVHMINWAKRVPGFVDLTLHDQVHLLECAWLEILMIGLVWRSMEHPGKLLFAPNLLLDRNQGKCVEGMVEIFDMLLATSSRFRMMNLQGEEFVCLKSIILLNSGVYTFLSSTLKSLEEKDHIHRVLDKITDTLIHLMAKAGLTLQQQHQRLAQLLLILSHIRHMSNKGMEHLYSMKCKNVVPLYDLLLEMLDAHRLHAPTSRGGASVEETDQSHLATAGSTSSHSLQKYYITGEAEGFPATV
Protocol: as §1

ER = settings: cited from earlier work
progesterone action = settings: cited from earlier work
thyroxine receptor (TR) = assay: Trypsin digestion of translated TR; assay type: biochemical; settings: preincubated with 10^-T MT3
Protocol: as §2
(§3) The receptors were translated as a polypeptides of predicted molecular weight (FIG. 7A and 7B, lane 1). Trypsin digestion of RAR and TR which had been preincubated with 2 μM retinoic acid and 10^-T MT3 produced a resistant 31 kd fragment, which was not detectable following digestion of carrier-treated receptor (compare lanes 2-6 with lanes 8-12). […]

[3] = system: retinoic acid receptor (RAR); assay: Trypsin digestion of translated RAR; assay type: biochemical; settings: preincubated with 2 μM retinoic acid
Protocol: as §2, §3

Compound: CC#C[C@]1(O)CC[C@H]2[C@@H]3CCC4=CC(=O)CCC4=C3[C@@H](c3ccc(N(C)C)cc3)C[C@@]21C [Ru38486]
- recognition (supershift) of ligand-bound hPR-DNA complex by C-262 antibody (hPR): exposed
- binding of translated PR to a PRE (specific DNA-protein complex, EMSA) (A-form human PR [1]): promoted binding to the PRE that was at least as strong as that induced by an equal concentration (100 nM) of progesterone
- protease-resistant PR fragment (A-form human PR [2]): 27 kd

Compound: CCCCN(C)C(=O)CCCCCCCCCC[C@@H]1Cc2cc(O)ccc2[C@H]2CC[C@]3(C)[C@@H](O)CC[C@H]3[C@H]12 [ICI 164,384]
- binding of translated ER to an ERE (EMSA) (Human ER): induces high affinity DNA binding
- agonistic activity (ER): no detectable agonistic activity

Compound: C[C@H]1CC2=CC(=O)CCC2=C2[C@@H]1[C@@H]1CC[C@@]3(CCCO3)[C@@]1(C)C[C@@H]2c1ccc(N(C)C)cc1 [Org 31806]
- recognition (supershift) of ligand-bound hPR-DNA complex by C-262 antibody (hPR): resulted in supershifting of PR-DNA complexes
- binding of translated PR to a PRE (specific DNA-protein complex, EMSA) (A-form human PR [1]): induce binding of translated PR to a PRE in vitro
- antagonism of progesterone action in vivo (progesterone action): strongly antagonize progesterone action in vivo
- proteolytic fragment pattern / conformational change of PR (A-form human PR [2]): indistinguishable from that induced by Ru38486

Compound: thyroxine [T3]
- trypsin-resistant TR fragment (thyroxine receptor (TR)): 31 kd

Compound: C[C@]12CC[C@@H]3c4ccc(O)cc4CC[C@H]3[C@@H]1CC[C@@H]2O [estradiol, 17β-estradiol]
- binding of translated PR to a PRE (specific DNA-protein complex, EMSA) (A-form human PR [1]): failed to induce a specific complex

Compound: CCC(=O)[C@@]1(C)CC[C@H]2[C@@H]3CCC4=CC(=O)CCC4=C3CC[C@@]21C [R5020]
- proteolytic fragment pattern / conformational change of PR (A-form human PR [2]): R5020 and progesterone induced the same conformational changes

Compound: CC1=C(/C=C/C(C)=C/C=C/C(C)=C/C(=O)O)C(C)(C)CCC1 [retinoic acid]
- trypsin-resistant RAR fragment [3]: 31 kd

Compound: CC(=O)[C@H]1CC[C@H]2[C@@H]3CCC4=CC(=O)CC[C@]4(C)[C@H]3CC[C@]12C [progesterone]
- recognition (supershift) of ligand-bound hPR-DNA complex by C-262 antibody (hPR): almost totally prevented recognition of the receptor by C-262 antibody
- binding of translated PR to a PRE (specific DNA-protein complex, EMSA) (A-form human PR [1]): Specific DNA-protein complexes were obtained
- protease-resistant PR fragment (A-form human PR [2]): 30 kd
